Test results from patent publication US11642346B2, “Combination therapy for treating cancer” (Epizyme, Inc., priority 2017, dated 2023).

Columns and labels:
CHLA-266 cells [1] = assay: Combination of tazemetostat with other agents, pretreatment model, luminescent cell viability (ATP) assay; format: cell-based; details: pretreatment model: 4 days tazemetostat, then 4 days agent alone or with tazemetostat, synergy by Loewe Volume, Fa-CI plots
Method: (§1) Proliferation data was read for luminescence. Calculations of synergy were performed using the Loewe Volume (Chalice Software) and Fa-CI plots were generated with Calcusyn.

BT-12 cells [2] = assay: as above; format: cell-based; details: pretreatment model: 4 days tazemetostat, then 4 days agent alone or with tazemetostat, synergy by Loewe Volume, Fa-CI plots
Method: as §1

G401 cells = assay: Combination of tazemetostat with other agents, co-treatment model, luminescent cell viability (ATP) assay; format: cell-based; details: grown for seven days
Description: (§2) Proliferation data was read for luminescence.

A204 cells = assay: as above; format: cell-based; details: grown for seven days
Description: as §2

AT/RT and MRT cell lines = assay: In vitro combination studies of tazemetostat in a panel of AT/RT and MRT cell lines; format: cell-based; details: cell line models of AT/RT and MRT
[3] = system: atypical teratoid rhabdoid tumor (AT/RT) cells; assay: Tazemetostat pre-treatment followed by X-ray irradiation, 11 day clonogenic assay; format: cell-based; details: primed seven days, X-ray 2 Gy
MRT = details: preclinical models of MRT; cited from earlier work
CHLA-266 cells [4] = assay: Antiproliferative activity of tazemetostat, 2D culture, luminescent cell viability assay; format: cell-based; details: 0.08-10 μM, days 4, 6, 7, 11 and 15
Method: (§3) Cell viability was measured in a luminescent cell viability assay and is represented by luminescence counts.

BT-12 cells [5] = assay: as above; format: cell-based; details: 0.08-10 μM, days 4, 6, 7, 11 and 15
Method: as §3

COc1cc(Nc2ncc3c(n2)-c2ccc(Cl)cc2C(c2c(F)cccc2OC)=NC3)ccc1C(=O)O [Alisertib]
Combination treatment with tazemetostat, CHLA-266 (CHLA-266 cells [1]): Synergy | Combination treatment with tazemetostat, CHLA-266 (CHLA-266 cells [1]; listed as alisertib): synergy | Combination treatment with tazemetostat, BT-12 (BT-12 cells [2]): Synergy | Combination treatment with tazemetostat, BT-12 (BT-12 cells [2]; listed as alisertib): synergy | Combination treatment with tazemetostat, G401 (G401 cells): Additive | Combination treatment with tazemetostat, G401 (G401 cells; listed as alisertib): synergy | Combination treatment with tazemetostat, A204 (A204 cells): Additive | Combination treatment with tazemetostat, A204 (A204 cells; listed as alisertib): synergy | Antiproliferative effect of combination with tazemetostat (AT/RT and MRT cell lines): Synergistic activity

N.N.O=C([O-])C1(C(=O)[O-])CCC1.[Pt+2] [Carboplatin]
Combination treatment with tazemetostat, CHLA-266 (CHLA-266 cells [1]): Additive | Combination treatment with tazemetostat, BT-12 (BT-12 cells [2]): Additive | Combination treatment with tazemetostat, A204 (A204 cells): Additive

Nc1ccn([C@@H]2O[C@H](CO)[C@@H](O)[C@@H]2O)c(=O)n1 [Cytarabine/Ara-C, Cytarabine]
Combination treatment with tazemetostat, CHLA-266 (CHLA-266 cells [1]): Additive | Combination treatment with tazemetostat, BT-12 (BT-12 cells [2]): Synergy | Combination treatment with tazemetostat, G401 (G401 cells): Additive | Combination treatment with tazemetostat, A204 (A204 cells): Additive

COc1cccc2c1C(=O)c1c(O)c3c(c(O)c1C2=O)C[C@@](O)(C(=O)CO)C[C@@H]3O[C@H]1C[C@H](N)[C@H](O)[C@H](C)O1 [Doxorubicin]
Combination treatment with tazemetostat, CHLA-266 (CHLA-266 cells [1]): Synergy | Combination treatment with tazemetostat, CHLA-266 (CHLA-266 cells [1]; listed as doxorubicin): synergy | Combination treatment with tazemetostat, BT-12 (BT-12 cells [2]): Synergy | Combination treatment with tazemetostat, BT-12 (BT-12 cells [2]; listed as doxorubicin): synergy | Combination treatment with tazemetostat, G401 (G401 cells): Additive | Combination treatment with tazemetostat, G401 (G401 cells; listed as doxorubicin): synergy | Combination treatment with tazemetostat, A204 (A204 cells): Additive | Combination treatment with tazemetostat, A204 (A204 cells; listed as doxorubicin): synergy | Antiproliferative effect of combination with tazemetostat (AT/RT and MRT cell lines): Synergistic activity

Nc1ccccc1NC(=O)c1ccc(CNC(=O)OCc2cccnc2)cc1 [Entinostat]
Combination treatment with tazemetostat, CHLA-266 (CHLA-266 cells [1]): Synergy | Combination treatment with tazemetostat, CHLA-266 (CHLA-266 cells [1]; listed as entinostat): synergy | Combination treatment with tazemetostat, BT-12 (BT-12 cells [2]): Synergy | Combination treatment with tazemetostat, BT-12 (BT-12 cells [2]; listed as entinostat): synergy | Combination treatment with tazemetostat, G401 (G401 cells): Synergy | Combination treatment with tazemetostat, G401 (G401 cells; listed as entinostat): synergy | Combination treatment with tazemetostat, A204 (A204 cells): Additive | Combination treatment with tazemetostat, A204 (A204 cells; listed as entinostat): synergy | Antiproliferative effect of combination with tazemetostat (AT/RT and MRT cell lines): enhanced the antiproliferative effect

COc1cc([C@@H]2c3cc4c(cc3[C@@H](O[C@@H]3O[C@@H]5CO[C@@H](C)O[C@H]5[C@H](O)[C@H]3O)[C@H]3COC(=O)[C@H]23)OCO4)cc(OC)c1O [Etoposide]
Combination treatment with tazemetostat, CHLA-266 (CHLA-266 cells [1]): Additive | Combination treatment with tazemetostat, BT-12 (BT-12 cells [2]): Additive | Combination treatment with tazemetostat, G401 (G401 cells): Synergy | Combination treatment with tazemetostat, A204 (A204 cells): Additive

CO[C@H]1C[C@@H]2CC[C@@H](C)[C@@](O)(O2)C(=O)C(=O)N2CCCC[C@H]2C(=O)O[C@H]([C@H](C)C[C@@H]2CC[C@@H](OCCO)[C@H](OC)C2)CC(=O)[C@H](C)/C=C(\C)[C@@H](O)[C@@H](OC)C(=O)[C@H](C)C[C@H](C)/C=C/C=C/C=C/1C [Everolimus]
Combination treatment with tazemetostat, CHLA-266 (CHLA-266 cells [1]): Synergy | Combination treatment with tazemetostat, BT-12 (BT-12 cells [2]): Synergy | Combination treatment with tazemetostat, G401 (G401 cells): Additive | Combination treatment with tazemetostat, A204 (A204 cells): Additive

CC[C@@]1(O)C(=O)OCc2c1cc1n(c2=O)Cc2cc3c(CN(C)C)c(O)ccc3nc2-1 [Topotecan]
Combination treatment with tazemetostat, CHLA-266 (CHLA-266 cells [1]): Synergy | Combination treatment with tazemetostat, BT-12 (BT-12 cells [2]): Synergy | Combination treatment with tazemetostat, G401 (G401 cells): Synergy | Combination treatment with tazemetostat, A204 (A204 cells): Additive | Antiproliferative effect of combination with tazemetostat (AT/RT and MRT cell lines): synergistic interactions

CC[C@]1(O)C[C@H]2CN(CCc3c([nH]c4ccccc34)[C@@](C(=O)OC)(c3cc4c(cc3OC)N(C=O)[C@H]3[C@@](O)(C(=O)OC)[C@H](OC(C)=O)[C@]5(CC)C=CCN6CC[C@]43[C@@H]65)C2)C1 [Vincristine]
Combination treatment with tazemetostat, CHLA-266 (CHLA-266 cells [1]): Synergy | Combination treatment with tazemetostat, CHLA-266 (CHLA-266 cells [1]; listed as vincristine): synergy | Combination treatment with tazemetostat, BT-12 (BT-12 cells [2]): Synergy | Combination treatment with tazemetostat, BT-12 (BT-12 cells [2]; listed as vincristine): synergy | Combination treatment with tazemetostat, G401 (G401 cells; listed as vincristine): synergy | Combination treatment with tazemetostat, A204 (A204 cells): Synergy | Combination treatment with tazemetostat, A204 (A204 cells; listed as vincristine): synergy | Antiproliferative effect of combination with tazemetostat (AT/RT and MRT cell lines): Synergistic activity

CCN(c1cc(-c2ccc(CN3CCOCC3)cc2)cc(C(=O)NCc2c(C)cc(C)[nH]c2=O)c1C)C1CCOCC1 [tazemetostat]
Clonogenic survival, tazemetostat priming prior to X-ray irradiation [3]: reduction in clonogenic survival | Tumor response to tazemetostat treatment (MRT): robust tumor regressions | Cell death / cell viability (CHLA-266 cells [4]): Time and dose dependent increases in cell death | Cell death / cell viability (BT-12 cells [5]): Time and dose dependent increases in cell death
